In ChEMBL document CHEMBL3046075, “Synthesis and antibacterial activity of novel 7-haloanilino-8-nitrofluoroquinolone derivatives” (2012):
Values after ≈ are worked out from the molar mass of the structure shown.

How the values were obtained:
Staphylococcus aureus [1] = assay: Antibacterial activity against resistant isolates of Staphylococcus aureus after 24 hr by two-fold serial dilution method; format: functional
Staphylococcus aureus [2] = assay: Antibacterial activity against Staphylococcus aureus ATCC 6538 after 24 hr by two-fold serial dilution method; format: functional; conditions: ATCC 6538, 24 h

SMILES	MIC (Staphylococcus aureus [1])	MIC (Staphylococcus aureus [2])
O=C(O)c1cn(C2CC2)c2c([N+](=O)[O-])c(Nc3ccc(F)c(F)c3F)c(F)cc2c1=O	9.8 µg/mL (≈ 22.4 µM)	39 µg/mL (≈ 89.2 µM)
O=C(O)c1cn(C2CC2)c2c([N+](=O)[O-])c(Nc3ccccc3F)c(F)cc2c1=O	106 µg/mL (≈ 264 µM)	106 µg/mL (≈ 264 µM)
O=C(O)c1cn(C2CC2)c2cc(N3CCNCC3)c(F)cc2c1=O [CIPROFLOXACIN]	1.4 µg/mL (≈ 4.23 µM)	2.9 µg/mL (≈ 8.75 µM)
O=C(O)c1cn(C2CC2)c2c([N+](=O)[O-])c(Nc3ccccc3Cl)c(F)cc2c1=O	6.7 µg/mL (≈ 16 µM)	6.7 µg/mL (≈ 16 µM)
O=C(O)c1cn(C2CC2)c2c([N+](=O)[O-])c(Nc3ccc(Cl)cc3)c(F)cc2c1=O	9.8 µg/mL (≈ 23.5 µM)	6.7 µg/mL (≈ 16 µM)
O=C(O)c1cn(C2CC2)c2c([N+](=O)[O-])c(Nc3cccc(Cl)c3)c(F)cc2c1=O	7 µg/mL (≈ 16.8 µM)	0.9 µg/mL (≈ 2.15 µM)
O=C(O)c1cn(C2CC2)c2c([N+](=O)[O-])c(Nc3ccccc3)c(F)cc2c1=O		11.7 µg/mL (≈ 30.5 µM)
